Like-named read-outs stand apart in the source and are kept apart here.
Tests used:
[1] = oral administration, cited from earlier work
[2] = target: human farnesyltransferase (FTase) (Homo sapiens, UniProt P49354+P49356); details: in vitro and in vivo; cited from earlier work
[3] = Clinical assessment: toxicity (CTC version 2.0), dose-limiting toxicity; format: in vivo, human
Description: The second and third subjects in the cohort were to be started only when the first subject completed the first intravenous and the oral treatment (i.e., 8-day period) without a dose-limiting toxicity (DLT). If a DLT occurred in 1 of 3 subjects of either the first or the second cohort, 3 supplementary subjects were to be added to that cohort. If more than 1 subject experienced DLT (either in the first 3 subjects or in the extended cohort of 6 subjects), dose escalation was to be terminated, and other subjects in that cohort had to complete their therapy at the same dose.
(§1) Complete patient history was taken, and a physical examination (including vital signs), hematological tests, and clinical chemistry tests were performed at baseline and during treatment. To assess cardiovascular safety, twelve-lead E.C.G.s were recorded at screening, during Cycle 1 and at the end of therapy. Although objective tumor response was not the primary objective of this study, an attempt was made to obtain appropriate measurements to assess response. All adverse events and clinically relevant laboratory abnormalities were graded according to Common Toxicity Criteria (CTC version 2.0)

plasma proteins [4] = test: Tipifarnib protein binding analysis, equilibrium dialysis of patient plasma (ex vivo); format: in vitro ADME, human
Procedure: Tipifarnib was specifically labeled with [^14C] at the asymmetric carbon atom. A 7-mL blood sample was taken from 24 patients at 4 hours after the start of the continuous intravenous infusion of tipifarnib on Day 4. The plasma samples were fortified with [^14C]-tipifarnib at 500 ng/ml. The fortified plasma samples were subjected to equilibrium dialysis against a 0.067 M phosphate buffer, pH 7.17 at 37° C. for 4 hours in a Dianorm system with identical macro-1 Teflon cells and Diachema 10.17 dialysis membranes (MW cut-off 10,000). Radioactivity levels were measured in duplicate 100-μl aliquots of the fortified plasma before and after equilibrium dialysis, and in 1000-μl duplicate aliquots of the contents of buffer compartments of the dialysis cells admixed with methanol after dialysis in a Packard Tri-Carb 1900 TR liquid scintillation spectrometer. The total protein concentration was determined with a colorimetric biureet method, kit Roche Diagnostics 1929917. The albumin concentration was determined with a colorimetric bromocresol green method kit Roche Diagnostics 1970909. The α1-acid glycoprotein concentration was determined with an immuno-turbidimetric method, kit Roche Diagnostics 1557602. All these tests were performed on a Roche Hitachi Modular analyser. […]

[5] = Plasma pharmacokinetics of tipifarnib after oral, 2-hour i.v. and continuous i.v. administration in cancer patients; format: in vivo, human; details: for systemic exposure (AUC0-10h) lower relative to 200 mg oral dose: Day 4, cohort 1 (3 subjects); for systemic exposure lower relative to 200 mg oral dose: cohort 2 (3 subjects); for bioavailability: oral, dose-normalized AUC0-10h, fed, read-out: mean absolute bioavailability of the oral tablet; for bioavailability / Tmax: 200 mg; for Tmax: po
Procedure: The objective of the first (dose-determination) phase of the study was to identify an intravenous regimen that was well tolerated. It was expected that this regimen would be equivalent to 50% -60% of a clinically relevant oral dose (200 mg), based on a prior pilot determination of absolute bioavailability in healthy male volunteers. A first cohort of 3 subjects received the following uninterrupted 4-day consecutive treatments of tipifarnib: 30 mg as a 2-hour intravenous infusion b.i.d. on Day 1-4, followed by 200 mg as oral administration b.i.d. on Day 5-8, followed by 60 mg per day as a continuous intravenous infusion on Day 9-12. Similarly, a second cohort of 3 subjects received similar 4-day regimens of tipifarnib: 60 mg as a 2-hour intravenous infusion b.i.d., followed by 200 mg as oral administration b.i.d., followed by 120 mg per day as a continuous intravenous infusion. There was no washout period between each of the 4-day oral or i.v. treatments described.
The second (i.v.-oral bridging) phase of the study was completed in separate group of patients. Systemic exposure to tipifarnib following the selected 2-hour and continuous intravenous regimens (from the previous dose-determination phase) was compared to exposure after a 200-mg b.i.d. oral regimen. The bridging phase was initiated when at least 2 subjects of the second cohort of the dose-determination phase were observed without DLT until Day 21. A total of 24 subjects were randomly assigned in a 1:1 ratio to one of two treatment sequences at the chosen intravenous regimens, in order to account for potential sequence-effects.
Sequence 1: 100 mg b.i.d. administered as a 2-hour intravenous infusion on Days 1-4, followed by 200 mg oral tablets b.i.d. on Days 5-8, then 200 mg/day administered as a continuous 4-day intravenous infusion on Days 9-12.
Sequence 2: 200 mg/day administered as a continuous 4-day intravenous infusion on Days 1-4, followed by 200 mg oral tablets b.i.d. on Days 5-8, then 100 mg b.i.d. administered as a 2-hour intravenous infusion on Days 9-12.
In both the dose-determination and the bridging phases, pharmacokinetic sampling was performed during a 10-hour period from the start of the morning dose on Day 4 of each treatment. Whole blood samples were taken immediately before, and 0.5, 1, 2, 3, 4, 6, 8, and 10 hours after oral administration. For 2-hour intravenous infusion, blood samples were taken immediately before, and 1, 2 (i.e. just before the end of the infusion), 2.25, 3, 4, 6, 8, and 10 hours after dosing. Blood samples were taken immediately before, and 2, 4, 6, 8, and 10 hours after the start of the continuous intravenous infusion.
A minimum of 7 mL of blood for each PK sample was collected. Whole blood samples were immediately placed on ice and centrifuged within 2 hours after collection (10 min, 1000×g). Separated plasma was frozen immediately at ≦−18° C. until assayed.
Plasma samples were thawed at room temperature, and individual sample was analyzed for tipifarnib using a previous published method. To 1-ml aliquots of human plasma, 200 ng of the internal standard (R121550, a structural analog) was spiked. After adding 1 ml of NaOH (0.1M), the samples were extracted twice with 4 ml of heptane containing 10% of isoamylalcohol. The combined organic phases were back-extracted with 2 ml of HCl (2M). After alkalization with concentrated ammonia, the aqueous phase was extracted once with 5 ml of heptane containing 5% of isoamylalcohol. This extract was evaporated under nitrogen at 65° C. and the residue dissolved in 100 microliters of injection solvent (Ammoniumacetate 0.01M/acetonitile/methanol; 50/25/25). A 15 μl extract was injected into an HPLC with UV detection (Agilent) at a wavelength of 240 nm. Separation was performed on a 10 cm×4.6 mm chromatographic column, packed with 3 μm C 18 BDS-Hypersil (Alltech). […]

[6] = Solubility and hydrolytic stability of tipifarnib in water; format: physicochemical
Procedure: Tipifarnib is a base with very good water solubility at acidic pH. It hydrolyzes to R110127, wherein the amine functionality is replaced by a hydroxy functionality. […] R110127 has the following structure: [drawing 2]
[…] is added to Formulation 1 to solubilize tipifarnib when it is reconstituted with Formulation 2. The pH value of the reconstituted solution is ˜4.5. At this pH value tipifarnib precipitates if no Hydroxypropyl-β-cyclodextrin is present. The risk of local irritation during infusion into a peripheral vein (arm) is at an acceptable level at this pH value.

human hepatocytes = details: in vitro; cited from earlier work
advanced solid tumor = test: Clinical assessment: efficacy / tumor response; format: in vivo, human
Procedure: as §1

plasma proteins [7] = test: In vitro plasma protein binding, plasma from 5 healthy men; format: in vitro ADME, human
Description: The value of the plasma protein binding of tipifarnib from the ex vivo measurement on cancer subjects in this trial is very close to that (99.22% bound) obtained from an in vitro experiment with the plasma samples from 5 healthy men. […]

CYP3A4 = CYP3A4 (Homo sapiens, UniProt P08684); details: compared to CYP2C19, CYP2A6, CYP2D6, CYP2C8/9/10; cited from earlier work
[8] = oral 50- to 500-mg b.i.d.; cited from earlier work
[9] = cited from earlier work
[10] = 2-hour i.v. infusion 100 mg b.i.d. versus oral 200 mg b.i.d.

CYP3A4, sequence (P08684 whole entry): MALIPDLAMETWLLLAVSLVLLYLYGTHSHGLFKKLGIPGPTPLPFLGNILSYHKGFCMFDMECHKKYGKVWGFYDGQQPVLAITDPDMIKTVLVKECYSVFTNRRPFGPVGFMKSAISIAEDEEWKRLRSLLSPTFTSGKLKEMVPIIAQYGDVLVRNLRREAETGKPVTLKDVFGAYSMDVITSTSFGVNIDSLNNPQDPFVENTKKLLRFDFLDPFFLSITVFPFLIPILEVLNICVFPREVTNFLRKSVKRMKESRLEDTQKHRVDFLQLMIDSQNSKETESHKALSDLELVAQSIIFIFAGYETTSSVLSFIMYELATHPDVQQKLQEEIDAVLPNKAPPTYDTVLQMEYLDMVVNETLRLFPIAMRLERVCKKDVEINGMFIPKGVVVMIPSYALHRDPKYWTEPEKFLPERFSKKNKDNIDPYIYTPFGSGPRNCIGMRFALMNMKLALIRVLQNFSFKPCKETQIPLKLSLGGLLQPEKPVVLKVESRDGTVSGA

Cn1cncc1[C@@](N)(c1ccc(Cl)cc1)c1ccc2c(c1)c(-c1cccc(Cl)c1)cc(=O)n2C [tipifarnib]
concentrations of unchanged tipifarnib lower than total radioactivity concentrations ([1]; deproteinized samples): approximately 8 times
concentrations of unchanged tipifarnib lower than total radioactivity concentrations ([1]; nonprecipitated samples): 42 times
oral dose recovered in faeces as tipifarnib [1]: less than 7%
unchanged drug excreted in the urine [1]: No unchanged drug was excreted in the urine
inhibition of human farnesyltransferase (FTase) [2]: potent and selective nonpeptidomimetic competitive inhibitor
febrile neutropenia, subjects ([3]; 1 subject): 3%
Grade 3 or 4 drug-related neutropenia, patients ([3]; 9/30 patients): 30%
phlebitis ([3]; IV bolus via peripheral venous access, not observed via central vein): 3 subjects
dose limiting toxicity ([3]; cohort 1: 30 mg b.i.d. 2-hour i.v., 60 mg per day continuous i.v.): No dose limiting toxicity
dose limiting toxicity (DLT) ([3]; cohort 2: 60 mg b.i.d. 2-hour i.v., 120 mg per day continuous i.v.): no DLT was observed
adverse events associated with intravenous administration ([3]; intravenous tipifarnib): No unusual adverse events
drug-related anorexia ([3]; mainly grade 1): 20%
drug-related diarrhea ([3]; mainly grade 1): 13%
drug-related fatigue ([3]; mainly grade 1): 60%
drug-related nausea ([3]; mainly grade 1): 40%
drug-related vomiting ([3]; mainly grade 1): 17%
mean free (unbound) fraction (plasma proteins [4]; plasma drawn 4 hours after start of continuous i.v. infusion, Day 4): 0.62%
dependence of unbound fraction on total drug plasma concentration (plasma proteins [4]; range 211 ng/mL to 812 ng/mL): independent of total drug plasma concentration
systemic exposure (AUC0-10h) lower relative to 200 mg oral dose ([5]; 30 mg b.i.d. 2-hour intravenous infusion): approximately 64%
systemic exposure lower relative to 200 mg oral dose ([5]; 60 mg b.i.d. 2-hour intravenous infusion): approximately 47%
systemic exposure (AUC0-10h) lower relative to 200 mg oral dose ([5]; 60 mg per day continuous intravenous infusion): ~59%
systemic exposure lower relative to 200 mg oral dose ([5]; 120 mg per day continuous infusion): ~46%
AUC0-10h higher than after oral administration [5, 10]: 19.3%
Cmax higher than after oral administration [5, 10]: 48.0%
bioavailability ([5]; human, plasma, oral versus 2-hour i.v.): 46.3%
bioavailability ([5]; human, plasma, oral versus continuous intravenous infusion): 40.9%
Tmax ([5]; human, plasma, oral 200 mg b.i.d. for 4 days, read-out: time of maximum plasma concentration (tmax)): ~2 h
Tmax ([5]; human, plasma, oral 200 mg b.i.d., 29 subjects, read-out: range of tmax): 0.5 to 3 h
AUC(0-t) ([5]; human, plasma, oral 200 mg b.i.d., 2-hour i.v. 100 mg b.i.d., continuous i.v. 200 mg/day, read-out: range of mean AUC0-10h values across the 3 treatments): 3990 to 4490 ng·h/mL
AUC(0-t) ([5]; human, plasma, oral 200 mg b.i.d., Day 4, n=24, read-out: arithmetic mean AUC0-10h (±SD)): 3990 ± 1670 ng·h/mL
Cmax ([5]; human, plasma, oral 200 mg b.i.d., Day 4, n=24, read-out: arithmetic mean Cmax (±SD)): 994 ± 487 ng/mL
arithmetic mean AUC0-10h (±SD) ([5]; oral 200 mg b.i.d., Day 4, n=24): 3990 ng·h/mL
water solubility ([6]; acidic pH): very good
rate of hydrolytic degradation to R110127 ([6]; aqueous): lowest at acidic condition but still very fast
solubility in reconstituted solution ([6]; pH ~4.5, without hydroxypropyl-β-cyclodextrin): precipitates
metabolism in human hepatocytes (human hepatocytes): undergoes direct glucoronidation
objective tumor responses (advanced solid tumor; 31 subjects evaluable): No objective tumor responses were observed
stable disease for at least 6 months (advanced solid tumor; 31 subjects evaluable): 14 subjects
duration of hematological improvement (durable increase in hemoglobin) (advanced solid tumor; one subject with MDS): 8 months
fraction unbound at 4 h, 1000 ng/mL (plasma proteins [7]; male, human, pH 7.17, blank plasma fortified with 14C-tipifarnib at 1000 ng/mL, read-out: plasma protein binding (bound) (converted)): 0.0078
dependence of in vitro plasma protein binding on total tipifarnib concentration (plasma proteins [7]; range 100 to 5000 ng/mL): independent of the total tipifarnib concentrations
CYP450 metabolic pathway (CYP3A4): CYP3A4 was a predominant metabolic pathway
peak concentration range [8]: 68 to 1458 ng/mL
mean AUC0-10h ([9]; 150 mg orally twice daily): 2495 ng·h/mL
mean Cmax ([9]; 150 mg orally twice daily): 443 ng/mL
mean AUC0-10h ([9]; 300 mg orally twice daily): 4674 ng·h/mL
mean Cmax ([9]; 300 mg orally twice daily): 974 ng/mL
